Source: US11464770B2, “Anticancer pharmaceutical composition” (NATIONAL CANCER CENTER, priority 2016, dated 2022)
Where two headings read alike, the source gives them in different places.

How the values were obtained:
brain cancer cell lines = assay: Cell based assay, cell viability (CellTiter-Glo), brain cancer cell lines; conditions: Homo sapiens
[1] = test system: cervical carcinoma cell lines; assay: Cell based assay, cell viability (CellTiter-Glo), cervical carcinoma cell lines; conditions: Homo sapiens; HeLa cells
[2] = test system: lung cancer cell lines (e.g. NCI-H23, NCI-H1229); assay: Cell based assay, cell viability (CellTiter-Glo), lung cancer cell lines; conditions: Homo sapiens
Method in brief: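 Commercial tumour lines, detached with trypsin-EDTA, were seeded and incubated 24 h. They were then dosed to 0–2 μM final, grown 72 h, and assessed for viability using CellTiter-Glo.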

[3] = U138-MG, U-138 MG cell line, read-out: IC50, Brain cancer cell line U-138 MG
[4] = T98G cell line, read-out: IC50, Brain cancer cell line T98G
[5] = U-251 MG cell line, read-out: IC50, Brain cancer cell line U-251 MG
[6] = A549 cells, 72 hours treatment, CellTiter-Glo, read-out: IC50, lung cancer cell line A549
[7] = DMS 114 cells, 72 hours treatment, CellTiter-Glo, read-out: IC50, lung cancer cell line DMS 114
[8] = MRC-5 cells, 72 hours treatment, CellTiter-Glo, read-out: IC50
[9] = NCI-H23 cells, 72 hours treatment, CellTiter-Glo, read-out: IC50, lung cancer cell line NCI-H23
[10] = NCI-H460 cells, 72 hours treatment, CellTiter-Glo, read-out: IC50, lung cancer cell line NCI-H460
[11] = NCI-H522 cells, 72 hours treatment, CellTiter-Glo, read-out: IC50, lung cancer cell line NCI-H522
[12] = NCI-H1299 cells, 72 hours treatment, CellTiter-Glo, read-out: IC50, lung cancer cell line NCI-H1299
[13] = NCI-H1437 cells, 72 hours treatment, CellTiter-Glo, read-out: IC50, lung cancer cell line NCI-H1437

Cc1cc(C[S+]([O-])c2[nH]c3c(Br)ccc(Cl)c3c(=O)c2C(=O)C2CC2)no1 (stereo not drawn) [Compound 96, 8-bromo-5-chloro-3-(cyclopropanecarbonyl)-2-(((5-methylisoxazol-3-yl)methyl)sulfinyl)quinolin-4(1H)-one]
IC50 (brain cancer cell lines; [3]): > 2 µM | IC50 (brain cancer cell lines; [4]): > 10 µM | IC50 (brain cancer cell lines; [5]): 1.31 µM | IC50 [1]: > 2 µM | IC50 [2, 6]: > 2000 nM | IC50 [2, 7]: > 2000 nM | IC50 [2, 8]: 1810 nM | IC50 [2, 9]: 1340 nM | IC50 [2, 10]: > 2000 nM | IC50 [2, 11]: 1820 nM | IC50 [2, 12]: 1800 nM | IC50 [2, 13]: > 10000 nM

CC(=O)c1c(S(C)(=O)=O)n(S(=O)(=O)c2ccc(C(C)(C)C)cc2)c2c(Br)ccc(Cl)c2c1=O [Compound 41, 3-acetyl-8-bromo-1-((4-(tert-butyl)phenyl)sulfonyl)-5-chloro-2-(methylsulfonyl)quinolin-4(1H)-one]
IC50 (brain cancer cell lines; [3]): > 10 µM | IC50 (brain cancer cell lines; [4]): > 10 µM | IC50 (brain cancer cell lines; [5]): > 2 µM | IC50 [1]: > 10 µM | IC50 [2, 6]: > 2000 nM | IC50 [2, 7]: > 2000 nM | IC50 [2, 8]: > 2000 nM | IC50 [2, 9]: > 2000 nM | IC50 [2, 10]: > 2000 nM | IC50 [2, 11]: > 2000 nM | IC50 [2, 12]: > 2000 nM | IC50 [2, 13]: > 10000 nM

CSc1c(C(C)=O)c(=O)c2c(Cl)ccc(Br)c2n1S(C)(=O)=O [Compound 35, 3-acetyl-8-bromo-5-chloro-1-(methylsulfonyl)-2-(methylthio)quinolin-4(1H)-one]
IC50 (brain cancer cell lines; [3]): > 10 µM | IC50 (brain cancer cell lines; [4]): > 10 µM | IC50 (brain cancer cell lines; [5]): > 2 µM | IC50 [1]: > 10 µM | IC50 [2, 6]: > 2000 nM | IC50 [2, 7]: > 2000 nM | IC50 [2, 8]: > 2000 nM | IC50 [2, 9]: > 2000 nM | IC50 [2, 10]: > 2000 nM | IC50 [2, 11]: > 2000 nM | IC50 [2, 12]: > 2000 nM | IC50 [2, 13]: > 10000 nM

CC(=O)c1c(SCc2ccc([N+](=O)[O-])cc2)[nH]c2c(Br)ccc(Cl)c2c1=O [Compound 32, 3-acetyl-8-bromo-5-chloro-2-((4-nitrobenzyl)thio)quinolin-4(1H)-one]
IC50 (brain cancer cell lines; [3]): > 10 µM | IC50 (brain cancer cell lines; [4]): > 10 µM | IC50 (brain cancer cell lines; [5]): > 2 µM | IC50 [1]: > 10 µM | IC50 [2, 6]: > 2000 nM | IC50 [2, 7]: > 2000 nM | IC50 [2, 8]: > 2000 nM | IC50 [2, 9]: > 2000 nM | IC50 [2, 10]: > 2000 nM | IC50 [2, 11]: > 2000 nM | IC50 [2, 12]: > 2000 nM | IC50 [2, 13]: > 10000 nM

CC(=O)c1c(SCc2ccccc2)n(C(=O)c2ccc(Br)cc2)c2c(Br)ccc(Cl)c2c1=O [Compound 23, 3-acetyl-2-(benzylthio)-8-bromo-1-(4-bromobenzoyl)-5-chloroquinolin-4(1H)-one]
IC50 (brain cancer cell lines; [3]): > 10 µM | IC50 (brain cancer cell lines; [4]): > 10 µM | IC50 (brain cancer cell lines; [5]): > 2 µM | IC50 [1]: > 10 µM | IC50 [2, 6]: > 2000 nM | IC50 [2, 7]: > 2000 nM | IC50 [2, 8]: > 2000 nM | IC50 [2, 9]: > 2000 nM | IC50 [2, 10]: > 2000 nM | IC50 [2, 11]: > 2000 nM | IC50 [2, 12]: > 2000 nM | IC50 [2, 13]: > 10000 nM

O=C(c1c([S+]([O-])Cc2ccc(SC(F)(F)F)cc2)[nH]c2c(Br)ccc(Cl)c2c1=O)C1CC1 (stereo not drawn) [Compound 101, 8-bromo-5-chloro-3-(cyclopropanecarbonyl)-2-((4-((trifluoromethyl)thio)benzyl)sulfinyl)quinolin-4(1H)-one]
IC50 (brain cancer cell lines; [3]): > 2 µM | IC50 (brain cancer cell lines; [4]): > 10 µM | IC50 (brain cancer cell lines; [5]): > 2 µM | IC50 [1]: > 2 µM | IC50 ([2]; Lung cancer cell line A549, 72 hours, cell viability (CellTiter-Glo), read-out: IC50, A549): > 2000 nM | IC50 ([2]; Lung cancer cell line DMS 114, 72 hours, cell viability (CellTiter-Glo), read-out: IC50, DMS 114): > 2000 nM | IC50 ([2]; Lung cancer cell line NCI-H23, 72 hours, cell viability (CellTiter-Glo), read-out: IC50, NCI-H23): 1330 nM | IC50 ([2]; Lung cancer cell line NCI-H460, 72 hours, cell viability (CellTiter-Glo), read-out: IC50, NCI-H460): > 2000 nM | IC50 ([2]; Lung cancer cell line NCI-H522, 72 hours, cell viability (CellTiter-Glo), read-out: IC50, NCI-H522): > 2000 nM | IC50 ([2]; Lung cancer cell line NCI-H1299, 72 hours, cell viability (CellTiter-Glo), read-out: IC50, NCI-H1299): > 2000 nM | IC50 ([2]; Lung cancer cell line NCI-H1437, 72 hours, cell viability (CellTiter-Glo), read-out: IC50, NCI-H1437): > 10000 nM | IC50 ([2]; MRC-5 (listed under Lung cancer cell line), 72 hours, cell viability (CellTiter-Glo), read-out: IC50, MRC-5): > 2000 nM
